T/C data for 18 molecules are collected here from PubChem BioAssay AID236 (DTP/NCI, 2004).

“And” between values parts separate entries of the source, which are not always exact repeats. Equal values may be shown once. Inconclusive results and toxic doses are left out.

The subject of the test is AK4 lymphoid leukemia ip, C3AKF1 mice, survival. As to the kind of experiment: NCI In Vivo Anticancer Drug Screen. Data for tumor model AK4 Lymphoid Leukemia (intraperitoneal) in C3AKF1 (CHKRF1) mice. The note with it: endpoint: median survival time, higher = longer survival. How it is done:
The antitumor activity of compounds was measured in mice bearing transplantable tumors. Survival or tumor size were measured and the results are expressed as the measurement made in the treated group (T) divided by the measurement made in the vehicle treated control group (C). The tumor model used in this assay is AK4 Lymphoid Leukemia (intraperitoneal) in C3AKF1 (CHKRF1) mice

The mark [1] stands for this setting: dose: 100.0 mg/kg/injection, schedule: Q01DX010 (ip), vehicle: saline.
Setting [2] is: dose: 200.0 mg/kg/injection, schedule: Q01DX010 (ip), vehicle: saline.
Setting [3] is: dose: 0.5 mg/kg/injection, schedule: Q01DX010 (ip), vehicle: saline.
Where [4] appears, read: dose: 1.0 mg/kg/injection, schedule: Q01DX010 (ip), vehicle: saline.
Setting [5] is: dose: 2.0 mg/kg/injection, schedule: Q01DX010 (ip), vehicle: saline.
Setting [6] is: dose: 4.0 mg/kg/injection, schedule: Q01DX010 (ip), vehicle: saline.
The mark [7] stands for this setting: dose: 1.25 mg/kg/injection, schedule: Q01DX010 (ip), vehicle: saline.
[8] abbreviates: dose: 2.5 mg/kg/injection, schedule: Q01DX010 (ip), vehicle: saline.
[9] abbreviates: dose: 5.0 mg/kg/injection, schedule: Q01DX010 (ip), vehicle: saline.
[10] abbreviates: dose: 10.0 mg/kg/injection, schedule: Q01DX010 (ip), vehicle: saline.
The mark [11] stands for this setting: dose: 20.0 mg/kg/injection, schedule: Q01DX010 (ip), vehicle: saline.
The mark [12] stands for this setting: dose: 40.0 mg/kg/injection, schedule: Q01DX010 (ip), vehicle: saline.
Where [13] appears, read: dose: 8.0 mg/kg/injection, schedule: Q01DX010 (ip), vehicle: saline.
[14] abbreviates: dose: 16.0 mg/kg/injection, schedule: Q01DX010 (ip), vehicle: saline.

`CN(C)/N=N/c1nc[nH]c1C(N)=O`: the T/C runs as follows: under setting [1], 155 % of control and 166 % of control; under setting [2], 177 % of control and 205 % of control.
Take `Nc1nc(F)nc2c1ncn2C1OC(CO)C(O)C1O` (stereo not given): the T/C under setting [3] was 105 % of control; the T/C under setting [4] was 100 % of control; the T/C under setting [5] is 100 % of control and 111 % of control; the T/C under setting [6] is 100 % of control and 105 % of control.
In the case of `NC(=O)c1ccc(NC(=O)CCC(=O)Nc2ccc(C(N)=O)cn2)nc1`, the T/C is, setting by setting: (dose: 0.63 mg/kg/injection, schedule: Q01DX010 (ip), vehicle: saline) 100 % of control; under setting [7], 110 % of control; under setting [8], 110 % of control; under setting [9], 100 % of control.
In the case of `O=[n+]1c2c(n([O-])c3ccccc31)-c1cccc3cccc-2c13`, the T/C reads like this: (dose: 3.13 mg/kg/injection, schedule: Q01DX010 (ip), vehicle: saline) 100 % of control; (dose: 6.25 mg/kg/injection, schedule: Q01DX010 (ip), vehicle: saline) 100 % of control; (dose: 12.5 mg/kg/injection, schedule: Q01DX010 (ip), vehicle: saline) 100 % of control; (dose: 25.0 mg/kg/injection, schedule: Q01DX010 (ip), vehicle: saline) 88 % of control and 94 % of control; (dose: 50.0 mg/kg/injection, schedule: Q01DX010 (ip), vehicle: saline) 88 % of control; under setting [1], 88 % of control.
With `CN(N=O)C(N)=O`, the T/C is, setting by setting: under setting [10], 162 % of control; under setting [11], 225 % of control; under setting [12], 112 % of control.
`Cn1c(N)nc2nc[nH]c2c1=S`: the T/C is 100 % of control under setting [9]; 100 % of control and 122 % of control under setting [10]; 88 % of control and 105 % of control under setting [11]; 88 % of control and 100 % of control under setting [12]; 111 % of control (dose: 80.0 mg/kg/injection, schedule: Q01DX010 (ip), vehicle: saline).
Turning to `CN1CC[C@]23c4c5ccc(O)c4O[C@H]2C(=O)CC[C@H]3[C@H]1C5`, the T/C is, setting by setting: under setting [3], 94 % of control; under setting [4], 105 % of control; under setting [5], 94 % of control; under setting [6], 88 % of control and 94 % of control; under setting [13], 88 % of control.
As for `CN(N=O)C(=O)NC(C=O)C(O)C(O)C(O)CO` (stereo not given), the T/C runs as follows: (dose: 60.0 mg/kg/injection, schedule: Q01DX010 (ip), vehicle: saline) 150 % of control; (dose: 90.0 mg/kg/injection, schedule: Q01DX010 (ip), vehicle: saline) 150 % of control.
In the case of `CSCS(=O)C[C@H](CO)NC(=O)/C=C/c1c(C)[nH]c(=O)[nH]c1=O` (stereo not given in full), the T/C runs as follows: (dose: 125.0 micrograms/kg/injection, schedule: Q01DX010 (ip), vehicle: saline) 93 % of control; (dose: 250.0 micrograms/kg/injection, schedule: Q01DX010 (ip), vehicle: saline) 87 % of control; (dose: 500.0 micrograms/kg/injection, schedule: Q01DX010 (ip), vehicle: saline) 87 % of control.
For `CCC(=O)O[C@H]1CC[C@H]2[C@@H]3CCC4=CC(=O)CC[C@]4(C)[C@H]3CC[C@]12C`, the T/C is, setting by setting: (dose: 125.0 mg/kg/injection, schedule: Q01DX010 (sc), vehicle: steriod suspending solution) 87 % of control; (dose: 250.0 mg/kg/injection, schedule: Q01DX010 (sc), vehicle: steriod suspending solution) 87 % of control; (dose: 500.0 mg/kg/injection, schedule: Q01DX010 (sc), vehicle: steriod suspending solution) 93 % of control; (dose: 1000.0 mg/kg/injection, schedule: Q01DX010 (sc), vehicle: steriod suspending solution) 87 % of control.
Consider `C[C@]12C=CC(=O)C=C1CC[C@@H]1[C@@H]2[C@@H](O)C[C@@]2(C)[C@H]1CC[C@]2(O)C(=O)CO`, for which the T/C was 90 % of control and 110 % of control (dose: 12.5 mg/kg/injection, schedule: Q01DX010 (sc), vehicle: steriod suspending solution); 95 % of control (dose: 25.0 mg/kg/injection, schedule: Q01DX010 (sc), vehicle: steriod suspending solution); 100 % of control and 105 % of control (dose: 50.0 mg/kg/injection, schedule: Q01DX010 (sc), vehicle: steriod suspending solution); 90 % of control (dose: 100.0 mg/kg/injection, schedule: Q01DX010 (sc), vehicle: steriod suspending solution).
As to `CCN(CC)c1ccc2cc3ccc(=[N+](CC)CC)cc-3oc2c1`, the T/C is, setting by setting: under setting [4], 100 % of control; under setting [5], 100 % of control; under setting [6], 100 % of control; under setting [13], 100 % of control.
Regarding `Nc1nc(=S)c2ncn(C3OC(CO)C(O)C3O)c2[nH]1` (stereo not given), the T/C runs as follows: under setting [5], 117 % of control; under setting [6], 111 % of control; under setting [13], 117 % of control; under setting [14], 94 % of control.
For `CCN(CC)C(=S)S`, the T/C (dose: 125.0 mg/kg/injection, schedule: Q01DX010 (ip), vehicle: saline) is 87 % of control; the T/C (dose: 250.0 mg/kg/injection, schedule: Q01DX010 (ip), vehicle: saline) is 87 % of control; the T/C (dose: 500.0 mg/kg/injection, schedule: Q01DX010 (ip), vehicle: saline) was 87 % of control; the T/C (dose: 1000.0 mg/kg/injection, schedule: Q01DX010 (ip), vehicle: saline) was 93 % of control.
On to `CCCCn1cnc2c(=S)nc[nH]c21`, for which the T/C was 100 % of control under setting [14]; 90 % of control and 122 % of control (dose: 32.0 mg/kg/injection, schedule: Q01DX010 (ip), vehicle: saline); 90 % of control and 111 % of control (dose: 64.0 mg/kg/injection, schedule: Q01DX010 (ip), vehicle: saline); 94 % of control and 100 % of control (dose: 128.0 mg/kg/injection, schedule: Q01DX010 (ip), vehicle: saline).
As for `NC(=O)N(CCCl)N=O`, the T/C under setting [3] was 162 % of control; the T/C under setting [4] was 168 % of control and 200 % of control; the T/C under setting [6] was 87 % of control.
As to `CC[n+]1c(-c2ccccc2)c2cc(N)ccc2c2ccc(N)cc21`, the T/C reads like this: under setting [7], 100 % of control; under setting [8], 100 % of control; under setting [9], 100 % of control; under setting [10], 100 % of control and 112 % of control; under setting [11], 112 % of control.
For `CN(C)CC(=O)c1ccc(O)c(O)c1`, the T/C under setting [2] was 112 % of control; the T/C (dose: 300.0 mg/kg/injection, schedule: Q01DX010 (ip), vehicle: saline) is 100 % of control; the T/C (dose: 450.0 mg/kg/injection, schedule: Q01DX010 (ip), vehicle: saline) is 112 % of control; the T/C (dose: 675.0 mg/kg/injection, schedule: Q01DX010 (ip), vehicle: saline) was 118 % of control.
